# Reference: PubChem BioAssay (NCI)
#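 Five compound concentrations were applied to cells in 96-well plates for 48 hours; endpoints were derived by simple linear interpolation of the resulting dose-response curve. At the TGI there is no net growth.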
# Experiments:
# Assay in all cases: inhibition of tumour cell growth, NCI panel, 48 h
# U251 CNS = test system: U251 CNS
# HCC-2998 colon = test system: HCC-2998 colon
# A549 NSCLC = test system: A549 NSCLC
# OVCAR-3 ovarian = test system: OVCAR-3 ovarian
# UACC-257 melanoma = test system: UACC-257 melanoma
# SN12C renal = test system: SN12C renal
# SNB-75 CNS = test system: SNB-75 CNS
# MDA-MB-231 breast = test system: MDA-MB-231 breast
# MALME-3M melanoma = test system: MALME-3M melanoma
# NCI-H23 lung = test system: NCI-H23 lung
# CAKI-1 renal = test system: CAKI-1 renal
# OVCAR-4 ovarian = test system: OVCAR-4 ovarian
# UACC-62 melanoma = test system: UACC-62 melanoma
# 786-0 renal = test system: 786-0 renal
# NCI-H226 lung = test system: NCI-H226 lung
# SK-OV-3 ovarian = test system: SK-OV-3 ovarian
# MCF7 breast = test system: MCF7 breast
# PC-3 prostate = test system: PC-3 prostate
smiles,measurement,setting,value
COC(=O)[C@@H]1CN(C(=O)CCc2ccccc2)C(=O)N1C(=O)OCc1ccccc1,TGI,U251 CNS,> 100 µM
same,TGI,HCC-2998 colon,> 100 µM
same,TGI,A549 NSCLC,> 100 µM
same,TGI,OVCAR-3 ovarian,> 100 µM
same,TGI,UACC-257 melanoma,> 100 µM
same,TGI,SN12C renal,> 100 µM
same,TGI,SNB-75 CNS,> 100 µM
same,TGI,MDA-MB-231 breast,> 100 µM
same,TGI,MALME-3M melanoma,> 100 µM
same,TGI,NCI-H23 lung,> 100 µM
same,TGI,CAKI-1 renal,> 100 µM
same,TGI,OVCAR-4 ovarian,> 100 µM
same,TGI,UACC-62 melanoma,> 100 µM
same,TGI,786-0 renal,> 100 µM
same,TGI,NCI-H226 lung,> 100 µM
same,TGI,SK-OV-3 ovarian,> 100 µM
same,TGI,MCF7 breast,> 100 µM
CC12NN=NC1C(=O)NC2=O (stereo not drawn),TGI,U251 CNS,> 100 µM
same,TGI,HCC-2998 colon,> 100 µM
same,TGI,A549 NSCLC,> 100 µM
same,TGI,OVCAR-3 ovarian,> 100 µM
same,TGI,UACC-257 melanoma,> 100 µM
same,TGI,SN12C renal,> 100 µM
same,TGI,SNB-75 CNS,> 100 µM
same,TGI,NCI-H23 lung,> 100 µM
same,TGI,CAKI-1 renal,> 100 µM
same,TGI,OVCAR-4 ovarian,> 100 µM
same,TGI,UACC-62 melanoma,> 100 µM
same,TGI,786-0 renal,> 100 µM
same,TGI,NCI-H226 lung,> 100 µM
same,TGI,SK-OV-3 ovarian,> 100 µM
COc1ccccc1NC(=O)/C(Cc1nc2ccc([N+](=O)[O-])cc2[nH]c1=O)=N\NC(=O)C[N+](C)(C)C,TGI,U251 CNS,> 100 µM
same,TGI,HCC-2998 colon,> 100 µM
same,TGI,A549 NSCLC,> 100 µM
same,TGI,OVCAR-3 ovarian,> 100 µM
same,TGI,UACC-257 melanoma,> 100 µM
same,TGI,SN12C renal,> 100 µM
same,TGI,SNB-75 CNS,> 100 µM
same,TGI,PC-3 prostate,> 100 µM
same,TGI,MDA-MB-231 breast,> 100 µM
same,TGI,NCI-H23 lung,> 100 µM
same,TGI,CAKI-1 renal,> 100 µM
same,TGI,OVCAR-4 ovarian,> 100 µM
same,TGI,UACC-62 melanoma,> 100 µM
same,TGI,786-0 renal,> 100 µM
same,TGI,NCI-H226 lung,> 100 µM
same,TGI,SK-OV-3 ovarian,> 100 µM
same,TGI,MCF7 breast,> 100 µM
Cc1cc(N(CCC#N)CCC#N)ccc1/C=C/C(=O)Nc1cccc(Cl)c1,TGI,U251 CNS,> 100 µM
same,TGI,HCC-2998 colon,> 100 µM
same,TGI,A549 NSCLC,> 100 µM
same,TGI,OVCAR-3 ovarian,> 100 µM
same,TGI,UACC-257 melanoma,> 100 µM
same,TGI,SN12C renal,> 100 µM
same,TGI,SNB-75 CNS,> 100 µM
same,TGI,MALME-3M melanoma,> 100 µM
same,TGI,NCI-H23 lung,> 100 µM
same,TGI,CAKI-1 renal,> 100 µM
same,TGI,OVCAR-4 ovarian,> 100 µM
same,TGI,UACC-62 melanoma,> 100 µM
same,TGI,786-0 renal,> 100 µM
same,TGI,NCI-H226 lung,> 100 µM
same,TGI,SK-OV-3 ovarian,> 100 µM
O=C1OC(CCCl)(c2ccccc2)CC1CN1CCOCC1 (stereo not drawn),TGI,U251 CNS,> 100 µM
same,TGI,HCC-2998 colon,> 100 µM
same,TGI,A549 NSCLC,> 100 µM
same,TGI,OVCAR-3 ovarian,32.1 µM
same,TGI,UACC-257 melanoma,73.4 µM
same,TGI,SN12C renal,90.7 µM
same,TGI,SNB-75 CNS,51.7 µM
same,TGI,MALME-3M melanoma,33.5 µM
same,TGI,NCI-H23 lung,23.7 µM
same,TGI,CAKI-1 renal,24.6 µM
same,TGI,OVCAR-4 ovarian,> 100 µM
same,TGI,UACC-62 melanoma,49.4 µM
same,TGI,786-0 renal,24.4 µM
same,TGI,NCI-H226 lung,28 µM
same,TGI,SK-OV-3 ovarian,> 100 µM
CCOC(=O)c1nc2ccc([N+](=O)[O-])cc2c2c1CCO2,TGI,U251 CNS,> 100 µM
same,TGI,HCC-2998 colon,> 100 µM
same,TGI,A549 NSCLC,> 100 µM
same,TGI,OVCAR-3 ovarian,> 100 µM
same,TGI,UACC-257 melanoma,> 100 µM
same,TGI,SN12C renal,> 100 µM
same,TGI,SNB-75 CNS,> 100 µM
same,TGI,MALME-3M melanoma,> 100 µM
same,TGI,NCI-H23 lung,> 100 µM
same,TGI,CAKI-1 renal,> 100 µM
same,TGI,OVCAR-4 ovarian,> 100 µM
same,TGI,UACC-62 melanoma,> 100 µM
same,TGI,786-0 renal,> 100 µM
same,TGI,NCI-H226 lung,> 100 µM
same,TGI,SK-OV-3 ovarian,> 100 µM
COc1ccc(N2C(=O)C3c4[nH]c5ccc(C)cc5c4C4CCC(C)CC4C3C2=O)cc1 (stereo not drawn),TGI,U251 CNS,> 100 µM
same,TGI,A549 NSCLC,> 100 µM
same,TGI,OVCAR-3 ovarian,> 100 µM
same,TGI,UACC-257 melanoma,> 100 µM
same,TGI,SN12C renal,> 100 µM
same,TGI,PC-3 prostate,> 100 µM
same,TGI,MDA-MB-231 breast,> 100 µM
same,TGI,MALME-3M melanoma,> 100 µM
same,TGI,NCI-H23 lung,> 100 µM
same,TGI,CAKI-1 renal,> 100 µM
same,TGI,UACC-62 melanoma,> 100 µM
same,TGI,786-0 renal,> 100 µM
same,TGI,NCI-H226 lung,> 100 µM
same,TGI,SK-OV-3 ovarian,> 100 µM
CC12Nc3ccccc3N1C(=O)c1ccccc12 (stereo not drawn),TGI,U251 CNS,> 100 µM
same,TGI,HCC-2998 colon,> 100 µM
same,TGI,A549 NSCLC,> 100 µM
same,TGI,OVCAR-3 ovarian,> 100 µM
same,TGI,UACC-257 melanoma,> 100 µM
same,TGI,SN12C renal,> 100 µM
same,TGI,PC-3 prostate,> 100 µM
same,TGI,MDA-MB-231 breast,> 100 µM
same,TGI,NCI-H23 lung,> 100 µM
same,TGI,CAKI-1 renal,> 100 µM
same,TGI,OVCAR-4 ovarian,> 100 µM
same,TGI,UACC-62 melanoma,> 100 µM
same,TGI,786-0 renal,> 100 µM
same,TGI,NCI-H226 lung,> 100 µM
same,TGI,SK-OV-3 ovarian,> 100 µM
same,TGI,MCF7 breast,> 100 µM
CCOC1(COP(=O)(OCc2ccccc2)OCc2ccccc2)COC(COP(=O)(OCc2ccccc2)OCc2ccccc2)(OCC)CO1 (stereo not drawn),TGI,U251 CNS,> 100 µM
same,TGI,HCC-2998 colon,> 100 µM
same,TGI,A549 NSCLC,> 100 µM
same,TGI,OVCAR-3 ovarian,> 100 µM
same,TGI,UACC-257 melanoma,> 100 µM
same,TGI,SN12C renal,> 100 µM
same,TGI,MALME-3M melanoma,> 100 µM
same,TGI,NCI-H23 lung,> 100 µM
same,TGI,CAKI-1 renal,> 100 µM
same,TGI,OVCAR-4 ovarian,> 100 µM
same,TGI,UACC-62 melanoma,> 100 µM
same,TGI,786-0 renal,> 100 µM
same,TGI,NCI-H226 lung,> 100 µM
same,TGI,SK-OV-3 ovarian,> 100 µM
CCOc1ccc2nc(NC(=O)c3c/c(=N\NC(=O)C[N+](C)(C)C)c4ccc(O)cc4o3)sc2c1,TGI,U251 CNS,10.5 µM
same,TGI,HCC-2998 colon,20.8 µM
same,TGI,A549 NSCLC,7.84 µM
same,TGI,OVCAR-3 ovarian,0.402 µM
same,TGI,UACC-257 melanoma,3.16 µM
same,TGI,SN12C renal,14.5 µM
same,TGI,SNB-75 CNS,3.53 µM
same,TGI,MALME-3M melanoma,2.56 µM
same,TGI,NCI-H23 lung,7.13 µM
same,TGI,CAKI-1 renal,18.6 µM
same,TGI,OVCAR-4 ovarian,5.96 µM
same,TGI,UACC-62 melanoma,3.21 µM
same,TGI,786-0 renal,10.9 µM
same,TGI,NCI-H226 lung,12 µM
same,TGI,SK-OV-3 ovarian,25.2 µM
CSCC1CC(c2ccc(Cl)cc2)=NO1 (stereo not drawn),TGI,U251 CNS,> 100 µM
same,TGI,HCC-2998 colon,> 100 µM
same,TGI,A549 NSCLC,> 100 µM
same,TGI,OVCAR-3 ovarian,> 100 µM
same,TGI,UACC-257 melanoma,> 100 µM
same,TGI,SN12C renal,> 100 µM
same,TGI,SNB-75 CNS,> 100 µM
same,TGI,MALME-3M melanoma,> 100 µM
same,TGI,NCI-H23 lung,> 100 µM
same,TGI,CAKI-1 renal,> 100 µM
same,TGI,OVCAR-4 ovarian,> 100 µM
same,TGI,UACC-62 melanoma,> 100 µM
same,TGI,786-0 renal,> 100 µM
same,TGI,NCI-H226 lung,> 100 µM
same,TGI,SK-OV-3 ovarian,> 100 µM
[N-]=[N+]=Nc1c(-c2ccccc2)c(Cl)nc2ccccc12,TGI,U251 CNS,> 100 µM
same,TGI,HCC-2998 colon,> 100 µM
same,TGI,A549 NSCLC,> 100 µM
same,TGI,OVCAR-3 ovarian,> 100 µM
same,TGI,UACC-257 melanoma,59.8 µM
same,TGI,SN12C renal,> 100 µM
same,TGI,SNB-75 CNS,> 100 µM
same,TGI,PC-3 prostate,> 100 µM
same,TGI,MDA-MB-231 breast,> 100 µM
same,TGI,MALME-3M melanoma,> 100 µM
same,TGI,NCI-H23 lung,> 100 µM
same,TGI,CAKI-1 renal,> 100 µM
same,TGI,OVCAR-4 ovarian,> 100 µM
same,TGI,786-0 renal,> 100 µM
same,TGI,NCI-H226 lung,> 100 µM
same,TGI,SK-OV-3 ovarian,> 100 µM
O=[N+]([O-])/C=C1\COCc2cc3c(cc21)OCO3,TGI,U251 CNS,36.5 µM
same,TGI,HCC-2998 colon,32.9 µM
same,TGI,A549 NSCLC,39.8 µM
same,TGI,OVCAR-3 ovarian,35.9 µM
same,TGI,UACC-257 melanoma,40.9 µM
same,TGI,SN12C renal,47.2 µM
same,TGI,SNB-75 CNS,38.9 µM
same,TGI,PC-3 prostate,25.6 µM
same,TGI,MDA-MB-231 breast,29.8 µM
same,TGI,NCI-H23 lung,27.1 µM
same,TGI,CAKI-1 renal,25.7 µM
same,TGI,UACC-62 melanoma,51.8 µM
same,TGI,786-0 renal,44.3 µM
same,TGI,NCI-H226 lung,57.6 µM
same,TGI,SK-OV-3 ovarian,> 100 µM
same,TGI,MCF7 breast,35.8 µM
COc1ccc(NC(=O)C/C(C)=N\N=C(N)N)c([N+](=O)[O-])c1,TGI,U251 CNS,> 100 µM
same,TGI,HCC-2998 colon,> 100 µM
same,TGI,A549 NSCLC,> 100 µM
same,TGI,OVCAR-3 ovarian,> 100 µM
same,TGI,UACC-257 melanoma,> 100 µM
same,TGI,SN12C renal,> 100 µM
same,TGI,SNB-75 CNS,> 100 µM
same,TGI,MALME-3M melanoma,> 100 µM
same,TGI,NCI-H23 lung,> 100 µM
same,TGI,CAKI-1 renal,> 100 µM
same,TGI,OVCAR-4 ovarian,> 100 µM
same,TGI,UACC-62 melanoma,> 100 µM
same,TGI,786-0 renal,> 100 µM
same,TGI,NCI-H226 lung,> 100 µM
same,TGI,SK-OV-3 ovarian,> 100 µM
O=c1cc(-c2ccccc2)[nH]c2cc(O)ccc12,TGI,U251 CNS,90.7 µM
same,TGI,HCC-2998 colon,74.7 µM
same,TGI,A549 NSCLC,81.8 µM
same,TGI,UACC-257 melanoma,48.2 µM
same,TGI,SN12C renal,89.6 µM
same,TGI,SNB-75 CNS,72.5 µM
same,TGI,MALME-3M melanoma,> 100 µM
same,TGI,NCI-H23 lung,87.6 µM
same,TGI,CAKI-1 renal,71.6 µM
same,TGI,OVCAR-4 ovarian,58.1 µM
same,TGI,UACC-62 melanoma,46.5 µM
same,TGI,786-0 renal,> 100 µM
same,TGI,NCI-H226 lung,> 100 µM
same,TGI,SK-OV-3 ovarian,90.7 µM
